#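 All cell lines were grown in 96-well plates and treated with compound for 48 hours. The concentration for 50% growth inhibition is given as GI50. At the TGI there is no net growth.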
# Legend:
# Assay in all cases: NCI anticancer screen, dose series, 48 h
# 786-0 renal = test system: 786-0 renal
# A498 renal = test system: A498 renal
# A549 NSCLC = test system: A549 NSCLC
# ACHN renal = test system: ACHN renal
# BT-549 breast = test system: BT-549 breast
# CAKI-1 renal = test system: CAKI-1 renal
# CCRF-CEM leukemia = test system: CCRF-CEM leukemia
# COLO 205 colon = test system: COLO 205 colon
# EKVX NSCLC = test system: EKVX NSCLC
# HCC-2998 colon = test system: HCC-2998 colon
# HCT-116 colon = test system: HCT-116 colon
# HCT-15 colon = test system: HCT-15 colon
# HL-60(TB) leukemia = test system: HL-60(TB) leukemia
# HOP-62 NSCLC = test system: HOP-62 NSCLC
# HOP-92 NSCLC = test system: HOP-92 NSCLC
# IGROV1 ovarian = test system: IGROV1 ovarian
# LOX IMVI melanoma = test system: LOX IMVI melanoma
# M14 melanoma = test system: M14 melanoma
# MALME-3M melanoma = test system: MALME-3M melanoma
# MCF7 breast = test system: MCF7 breast
# MDA-MB-231 breast = test system: MDA-MB-231 breast
# MDA-MB-435 = test system: MDA-MB-435
# MOLT-4 leukemia = test system: MOLT-4 leukemia
# NCI-H226 lung = test system: NCI-H226 lung
# NCI-H23 lung = test system: NCI-H23 lung
# NCI-H460 lung = test system: NCI-H460 lung
# OVCAR-4 ovarian = test system: OVCAR-4 ovarian
# OVCAR-5 ovarian = test system: OVCAR-5 ovarian
# PC-3 prostate = test system: PC-3 prostate
# RPMI-8226 leukemia = test system: RPMI-8226 leukemia
# RXF 393 renal = test system: RXF 393 renal
# SF-295 CNS = test system: SF-295 CNS
# SF-539 CNS = test system: SF-539 CNS
# SK-MEL-28 melanoma = test system: SK-MEL-28 melanoma
# SK-MEL-5 melanoma = test system: SK-MEL-5 melanoma
# SK-OV-3 ovarian = test system: SK-OV-3 ovarian
# SN12C renal = test system: SN12C renal
# SNB-19 CNS = test system: SNB-19 CNS
# SNB-75 CNS = test system: SNB-75 CNS
# SW-620 colon = test system: SW-620 colon
# T-47D breast = test system: T-47D breast
# U251 CNS = test system: U251 CNS
# UACC-62 melanoma = test system: UACC-62 melanoma
# UO-31 renal = test system: UO-31 renal
# DU-145 prostate = test system: DU-145 prostate
# HS 578T breast = test system: HS 578T breast
# HT29 colon = test system: HT29 colon
# K-562 leukemia = test system: K-562 leukemia
# NCI-H522 lung = test system: NCI-H522 lung
# NCI/ADR-RES ovarian = test system: NCI/ADR-RES ovarian
# OVCAR-3 ovarian = test system: OVCAR-3 ovarian
# OVCAR-8 ovarian = test system: OVCAR-8 ovarian
# SF-268 CNS = test system: SF-268 CNS
# SK-MEL-2 melanoma = test system: SK-MEL-2 melanoma
# SR leukemia = test system: SR leukemia
# TK-10 renal = test system: TK-10 renal
# UACC-257 melanoma = test system: UACC-257 melanoma
structure (smiles),measurement,setting,value
Cn1ccc2c(c1=O)C(=O)c1nccc3c1c-2nc1ccccc13,GI50,786-0 renal,1640 nM
same,TGI,786-0 renal,3.18 µM
same,GI50,A498 renal,12.5 µM
same,TGI,A498 renal,25.9 µM
same,GI50,A549 NSCLC,1470 nM
same,TGI,A549 NSCLC,2900 nM
same,GI50,ACHN renal,1590 nM
same,TGI,ACHN renal,2990 nM
same,GI50,BT-549 breast,2120 nM
same,TGI,BT-549 breast,4.77 µM
same,GI50,CAKI-1 renal,1440 nM
same,TGI,CAKI-1 renal,2850 nM
same,GI50,CCRF-CEM leukemia,2210 nM
same,TGI,CCRF-CEM leukemia,> 100 µM
same,GI50,COLO 205 colon,1570 nM
same,TGI,COLO 205 colon,2960 nM
same,GI50,EKVX NSCLC,1650 nM
same,TGI,EKVX NSCLC,3.16 µM
same,GI50,HCC-2998 colon,1720 nM
same,TGI,HCC-2998 colon,3.15 µM
same,GI50,HCT-116 colon,1350 nM
same,TGI,HCT-116 colon,2870 nM
same,GI50,HCT-15 colon,1560 nM
same,TGI,HCT-15 colon,3.46 µM
same,GI50,HL-60(TB) leukemia,2210 nM
same,TGI,HL-60(TB) leukemia,5.03 µM
same,GI50,HOP-62 NSCLC,1450 nM
same,TGI,HOP-62 NSCLC,2810 nM
same,GI50,HOP-92 NSCLC,1810 nM
same,TGI,HOP-92 NSCLC,20.4 µM
same,GI50,IGROV1 ovarian,1520 nM
same,TGI,IGROV1 ovarian,3.87 µM
same,GI50,LOX IMVI melanoma,1400 nM
same,TGI,LOX IMVI melanoma,2810 nM
same,GI50,M14 melanoma,1840 nM
same,TGI,M14 melanoma,3.52 µM
same,GI50,MALME-3M melanoma,2200 nM
same,TGI,MALME-3M melanoma,4.09 µM
same,GI50,MCF7 breast,871 nM
same,TGI,MCF7 breast,2340 nM
same,GI50,MDA-MB-231 breast,1640 nM
same,TGI,MDA-MB-231 breast,3.13 µM
same,GI50,MDA-MB-435,1620 nM
same,TGI,MDA-MB-435,3.13 µM
same,GI50,MOLT-4 leukemia,2260 nM
same,TGI,MOLT-4 leukemia,7.01 µM
same,GI50,NCI-H226 lung,12.5 µM
same,TGI,NCI-H226 lung,26.4 µM
same,GI50,NCI-H23 lung,1270 nM
same,TGI,NCI-H23 lung,2800 nM
same,GI50,NCI-H460 lung,1360 nM
same,TGI,NCI-H460 lung,3.09 µM
same,GI50,OVCAR-4 ovarian,1310 nM
same,TGI,OVCAR-4 ovarian,2600 nM
same,GI50,OVCAR-5 ovarian,1920 nM
same,TGI,OVCAR-5 ovarian,3.46 µM
same,GI50,PC-3 prostate,1690 nM
same,TGI,PC-3 prostate,3.64 µM
same,GI50,RPMI-8226 leukemia,2580 nM
same,TGI,RPMI-8226 leukemia,8.68 µM
same,GI50,RXF 393 renal,1490 nM
same,TGI,RXF 393 renal,2950 nM
same,GI50,SF-295 CNS,1540 nM
same,TGI,SF-295 CNS,3.02 µM
same,GI50,SF-539 CNS,1830 nM
same,TGI,SF-539 CNS,3.42 µM
same,GI50,SK-MEL-28 melanoma,1610 nM
same,TGI,SK-MEL-28 melanoma,3.05 µM
same,GI50,SK-MEL-5 melanoma,1510 nM
same,TGI,SK-MEL-5 melanoma,2840 nM
same,GI50,SK-OV-3 ovarian,1740 nM
same,TGI,SK-OV-3 ovarian,3.15 µM
same,GI50,SN12C renal,1560 nM
same,TGI,SN12C renal,3.03 µM
same,GI50,SNB-19 CNS,1590 nM
same,TGI,SNB-19 CNS,3.03 µM
same,GI50,SNB-75 CNS,1170 nM
same,TGI,SNB-75 CNS,2430 nM
same,GI50,SW-620 colon,1280 nM
same,TGI,SW-620 colon,3.17 µM
same,GI50,T-47D breast,1800 nM
same,TGI,T-47D breast,3.74 µM
same,GI50,U251 CNS,1380 nM
same,TGI,U251 CNS,2790 nM
same,GI50,UACC-62 melanoma,1540 nM
same,TGI,UACC-62 melanoma,2930 nM
same,GI50,UO-31 renal,1550 nM
same,TGI,UO-31 renal,3.21 µM
COc1ccc(C(=O)c2sc(Nc3ccccc3)nc2N)cc1,TGI,786-0 renal,> 100 µM
same,TGI,A498 renal,> 100 µM
same,TGI,A549 NSCLC,> 100000 nM
same,TGI,ACHN renal,> 100000 nM
same,TGI,BT-549 breast,> 100 µM
same,TGI,CCRF-CEM leukemia,> 100 µM
same,TGI,DU-145 prostate,> 100 µM
same,TGI,EKVX NSCLC,> 100 µM
same,TGI,HCC-2998 colon,> 100 µM
same,TGI,HCT-15 colon,> 100 µM
same,TGI,HOP-62 NSCLC,> 80200 nM
same,TGI,HOP-92 NSCLC,> 100 µM
same,TGI,HS 578T breast,> 100 µM
same,TGI,HT29 colon,> 100 µM
same,TGI,IGROV1 ovarian,> 100 µM
same,TGI,K-562 leukemia,> 100 µM
same,TGI,LOX IMVI melanoma,> 100000 nM
same,TGI,M14 melanoma,> 100 µM
same,TGI,MALME-3M melanoma,> 100 µM
same,TGI,MCF7 breast,> 100000 nM
same,TGI,MDA-MB-231 breast,> 100 µM
same,TGI,MOLT-4 leukemia,> 100 µM
same,TGI,NCI-H226 lung,> 100 µM
same,TGI,NCI-H23 lung,> 100000 nM
same,TGI,NCI-H460 lung,> 100 µM
same,TGI,NCI-H522 lung,> 100 µM
same,TGI,NCI/ADR-RES ovarian,> 100 µM
same,TGI,OVCAR-3 ovarian,> 100 µM
same,TGI,OVCAR-4 ovarian,> 100000 nM
same,TGI,OVCAR-5 ovarian,> 100 µM
same,TGI,OVCAR-8 ovarian,> 100 µM
same,TGI,PC-3 prostate,> 100 µM
same,TGI,RPMI-8226 leukemia,> 100 µM
same,TGI,RXF 393 renal,> 100000 nM
same,TGI,SF-268 CNS,> 100 µM
same,TGI,SF-295 CNS,> 100 µM
same,TGI,SF-539 CNS,> 100 µM
same,TGI,SK-MEL-2 melanoma,> 100 µM
same,TGI,SK-MEL-28 melanoma,> 100 µM
same,TGI,SK-MEL-5 melanoma,> 100000 nM
same,TGI,SK-OV-3 ovarian,> 100 µM
same,TGI,SN12C renal,> 100 µM
same,TGI,SNB-19 CNS,> 100 µM
same,TGI,SR leukemia,> 100 µM
same,TGI,SW-620 colon,> 100 µM
same,TGI,T-47D breast,> 100 µM
same,TGI,TK-10 renal,> 100 µM
same,TGI,U251 CNS,> 100000 nM
same,TGI,UACC-257 melanoma,> 100 µM
same,TGI,UACC-62 melanoma,> 100000 nM
same,TGI,UO-31 renal,> 100 µM

# — PubChem BioAssay (NCI)
